Results published in patent US20230000813A1, “COMPOUND FOR THE TREATMENT OF BOVINE OR SWINE RESPIRATORY DISEASE” (Intervet Inc., priority 2016, published 2023).
≈ marks a conversion by molar mass, not a printed value. Read-outs that look alike come from different tables or passages of the source.

Assays:
Assay type in all cases: cell-based
[1] = system: 15 isolates of H. parasuis; assay: MIC50/MIC90, agar-dilution method (GC agar base); settings: Haemophilus parasuis
Experimental: The in vitro activity of 3 representative compounds of this invention against 15 isolates of H. parasuis was determined. All strains were isolated from the respiratory tract of swine in different European countries The MICs for all isolates were determined by using the agar-dilution method according to CLSI document VET01-A4 [1]with the following modification: GC agar base was used instead of Mueller-Hinton agar base for the preparation of the agar-dilution plates. Results were interpreted according to the CLSI document VET01-S3.

[2] = system: 20 isolates of Histophilus (H.) somni; assay: MIC50/MIC90, broth-microdilution, European respiratory tract isolates
Experimental: (§1) The in vitro activity of compounds against 20 isolates of Actinobacillus (A.) pleuropneumoniae, 20 of Bordetella (B.) bronchiseptica, 20 of Histophilus (H.) somni, 40 of Mannheimia (M.) haemolytica and 40 of Pasteurella (P.) multocida collected in different European countries were determined. All bacteria were isolated from the respiratory tract of swine and cattle suffering from respiratory disease. All isolates were epidemiologically unrelated as specified by the different suppliers.
(§2) The minimum inhibitory concentrations (MIC) of compounds according to the invention were determined by the broth-microdilution method according to CLSI document VET01-A4.
(§3) Microdilution trays containing a doubling dilution series of the test compounds were used for the tests.
(§4) The MIC results were interpreted according to the CLSI documents VET01-S3. The lowest concentration of compound at which no visible growth (i.e. no turbidity) detected by the unaided eye was recorded as the MIC.

[3] = system: 40 isolates of Mannheimia (M.) haemolytica; assay: as above
Experimental: as §1, §2, §3, §4

[4] = system: 20 isolates of Bordetella (B.) bronchiseptica; assay: as above
Experimental: as §1, §2, §3, §4

[5] = system: 40 isolates of Pasteurella (P.) multocida; assay: as above
Experimental: as §1, §2, §3, §4

[6] = system: 20 isolates of Actinobacillus (A.) pleuropneumoniae; assay: as above
Experimental: as §1, §2, §3, §4

[7] = system: Mannheimia haemolytica MH 13093 (XB0472-6014.1, BRD field isolate); assay: MIC, broth-microdilution (CLSI VET01-A4)
Outline: (§5)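 MIC read by eye as lowest compound concentration without visible growth (no turbidity), interpreted per CLSI VET01-S3. Doubling-dilution broth-microdilution trays, run according to CLSI VET01-A4.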

[8] = system: Mannheimia haemolytica MH 13065 (XB0446-6003.9, BRD field isolate); assay: MIC, broth-microdilution (CLSI VET01-A4)
Outline: as §5

[9] = system: Mannheimia haemolytica MH 12180 (KLI-02944, BRD field isolate); assay: MIC, broth-microdilution (CLSI VET01-A4); settings: strain MH 12180
Experimental: (§6) The Minimum inhibitory concentrations (MIC) of compounds according to the invention were determined by the broth-microdilution method according to CLSI document VET01-A4.
(§7) Microdilution trays containing a doubling dilution series of the test compound were used for the tests.
as §4

[10] = system: Pasteurella multocida PM 14426 (0006-439, BRD field isolate, macrolide-resistant); assay: MIC, broth-microdilution (CLSI VET01-A4); settings: strain PM 14426, macrolide-resistant
Experimental: as §6, §7, §4

[11] = system: Staphylococcus aureus SA 5816 (2139, mastitis field isolate); assay: MIC, broth-microdilution (CLSI VET01-A4); settings: strain SA 5816
Experimental: as §6, §7, §4

[12] = system: Acinetobacter baumanii AB 16496 (ATCC 19606, reference strain); assay: MIC, broth-microdilution (CLSI VET01-A4); settings: strain AB 16496
Experimental: as §6, §7, §4

[13] = system: Staphylococcus aureus SA 6114 (ATCC 29213, reference strain); assay: MIC, broth-microdilution (CLSI VET01-A4); settings: strain SA 6114
Experimental: as §6, §7, §4

[14] = system: Acinetobacter baumanii AB 15919 (IV369-2012, dermatitis field isolate); assay: MIC, broth-microdilution (CLSI VET01-A4); settings: strain AB 15919
Experimental: as §6, §7, §4

[15] = system: Pasteurella multocida PM 6391 (ATCC 43137, reference strain); assay: MIC, broth-microdilution (CLSI VET01-A4); settings: strain PM 6391
Outline: (§8)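 Read-out is visual: the MIC is the lowest compound concentration at which no turbidity is seen by eye. Trays carried a doubling dilution series, with interpretation following CLSI VET01-S3.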

[16] = system: Mannheimia haemolytica MH 6357 (M7/2, reference strain, cattle infection strain); assay: MIC, broth-microdilution (CLSI VET01-A4)
Outline: as §8

[17] = system: Pasteurella multocida PM 6267 (P 2225 (L386), reference strain, mouse infection strain); assay: MIC, broth-microdilution (CLSI VET01-A4)
Outline: as §8

[18] = system: Mannheimia haemolytica MH 10720 (154, BRD field isolate); assay: MIC, broth-microdilution (CLSI VET01-A4)
Outline: as §8

[19] = system: Mannheimia haemolytica MH 6374 (ATCC 33396, reference strain); assay: MIC, broth-microdilution (CLSI VET01-A4)
Outline: as §8

[20] = system: Pasteurella multocida PM 10775 (080130003051, BRD field isolate); assay: MIC, broth-microdilution (CLSI VET01-A4)
Outline: as §8

[21] = system: Mannheimia haemolytica MH 12587 (1071, BRD field isolate, macrolide-resistance: erm+, E+); assay: MIC, broth-microdilution (CLSI VET01-A4)
Outline: as §8

[22] = system: Pasteurella multocida PM 12080 (IV102277-0093, BRD field isolate); assay: MIC, broth-microdilution (CLSI VET01-A4)
Outline: as §8

CC(C)(N)C(NC(=O)c1ccc(C#Cc2ccc(CNCc3ccncc3)cc2)cc1)C(=O)NO (centres unmarked) [C. 320]
MIC50 [1]: 2 µg/mL (≈ 4.24 µM) | MIC90 [1]: 4 µg/mL (≈ 8.48 µM) | MIC50 [2]: 0.063 µg/mL (≈ 0.134 µM) | MIC90 [2]: 0.125 µg/mL (≈ 0.265 µM) | MIC50 [3]: 0.5 µg/mL (≈ 1.06 µM) | MIC90 [3]: 0.5 µg/mL (≈ 1.06 µM) | MIC50 [4]: 2 µg/mL (≈ 4.24 µM) | MIC90 [4]: 2 µg/mL (≈ 4.24 µM) | MIC50 [5]: ≤0.016 µg/mL | MIC90 [5]: 0.032 µg/mL (≈ 0.0679 µM) | MIC50 [6]: 0.5 µg/mL (≈ 1.06 µM) | MIC90 [6]: 0.5 µg/mL (≈ 1.06 µM) | MIC [7]: 1.6 µM (≈ 0.754 µg/mL) | MIC [8]: 0.8 µM (≈ 0.377 µg/mL) | MIC [9]: 0.5 µg/mL (≈ 1.06 µM) | MIC [10]: ≤0.016 µg/mL | MIC [11]: >16 µg/mL | MIC [12]: >16 µg/mL | MIC [13]: >16 µg/mL | MIC [14]: 16 µg/mL (≈ 33.9 µM) | MIC [15]: 0.032 µg/mL (≈ 0.0679 µM) | MIC ([16]; Mannheimia haemolytica MH 6357, read-out: MIC MH 6357): 0.8 µM | MIC ([16]; strain MH 6357): 0.5 µg/mL | MIC PM 6267 ([17]; Pasteurella multocida PM 6267): <=0.1 μM | MIC ([17]; strain PM 6267): ≤0.016 µg/mL | MIC ([18]; Mannheimia haemolytica MH 10720, read-out: MIC MH 10720): 0.4 µM | MIC ([18]; strain MH 10720): 0.25 µg/mL | MIC ([19]; Mannheimia haemolytica MH 6374, read-out: MIC MH 6374): 0.8 µM | MIC ([19]; strain MH 6374): 0.25 µg/mL | MIC PM 10775 ([20]; Pasteurella multocida PM 10775): <=0.1 μM | MIC ([20]; strain PM 10775): ≤0.016 µg/mL | MIC MH 12587 ([21]; Mannheimia haemolytica MH 12587, macrolide-resistant): 1.6 µM (≈ 0.754 µg/mL) | MIC ([21]; strain MH 12587, macrolide-resistant): 0.5 µg/mL (≈ 1.06 µM) | MIC PM 12080 ([22]; Pasteurella multocida PM 12080): <=0.1 μM | MIC ([22]; strain PM 12080): ≤0.016 µg/mL
